Reference: publication PMC8151276, “An Integrated Approach toward NanoBRET Tracers for Analysis of GPCR Ligand Engagement” (Molecules, 2021)

Molecular target: T1, NPY4R (Homo sapiens, UniProt P50391)
T1 construct: purchased Promega (in-house HiBiT-GPCR construct library, NanoBRET)
Assay: NanoBRET screen HiBiT-NPY4R in HEK293
Format: binding
Experimental: Each tracer candidate was screened across the entire library of HiBiT-GPCR constructs using NanoBRET as the detection modality. As depicted in Figure 4A, the specificity of interactions was evaluated through decrease in BRET due to competitive displacement of a bound tracer by excess parental compound. Each tracer was analyzed for binding to each HiBiT-GPCR fusion in the absence and in the presence of competing parental compound. Briefly, HEK293 cells were transfected with HiBiT-GPCR constructs diluted into promoterless DNA to reduce expression and maximize translocation to the cell surface. Each tracer candidate was then screened at concentrations of 1 μM and 0.1 μM across cells expressing these fusions. Cells were treated for 1.5 h with tracer either alone or in the presence of 20 μM competing parental compound (i.e., control). BRET was measured upon addition of purified LgBiT and subsequent complementation with HiBiT genetically fused to a GPCR. The specificity of interactions was assessed through a decrease in BRET signal due to competitive displacement of the bound tracer. To further gauge the robustness of these interactions, the fold response over the control (i.e., BRETtracer/BRETcontrol) was calculated. We chose a 1.5-fold response, which translates to ≥7-fold signal over noise as the minimal threshold required to score an interaction as positive.
HiBiT-GPCR DNA constructs were diluted in 10 mM Tris pH 8 to a final concentration of 0.01 μg/μL, arrayed in 96-well plates and stored at −20 °C. For transfection, HEK293 cells were suspended in Opti-MEM (without phenol red) supplemented with 2% fetal bovine serum (Seradigm) and 100 units/mL penicillin–streptomycin (Gibco) at a final concentration of 220,000 cells/mL and dispensed into white 96-well plates at 90 μL/well. Subsequent transfections and screens were carried using an Agilent Bravo Automated Liquid Handling Platform. First, the 96-well HiBiT DNA arrays were diluted 25-fold in Opti-MEM (without serum or phenol red) to a final concentration of 0.0004 μg/μL and 20 μL of the diluted DNAs were transferred into new 96-well plates. Next, promoterless carrier DNA (1 μg/μL) was diluted 25-fold (0.04 μg/μL) and then dispensed into the diluted arrays at 20 μL/well. Following brief mixing, Viafect transfection reagent (Promega) diluted 16-fold into Opti-MEM was dispensed into the plates at 40 μL/well. After mixing by pipetting, plates were incubated for 10 min on the pipetting station deck. The DNA-transfection reagent complexes were then added to plates containing cells. To facilitate the screen, 10 μL of DNA-transfection reagent complexes were added in duplicates to the top 4 and bottom 4 rows, resulting in two identical 48-well arrays per plate. Plates with transfected cells were incubated for 18–20 h at 37 °C/5% CO2. A screen of each tracer across the entire library using two different concentrations requires duplicate plates of transfected cells. Depending on the number of tracers being screened, transfections can be scaled up using the same ratios. The next day, for each tracer, four 20× screening solutions in tracer dilution buffer (Promega) were prepared: two duplicates at final concentration of 20 μM and two duplicates at a final concentration of 2 μM. […] The four resulting solutions were diluted 4-fold in Opti-MEM without serum or phenol red to generate 5× solutions (5 µM and 0.5 µM tracer +/− 100 μM competing compound). To screen the library, a BioTek MultiFlo FX liquid dispenser was used to dispense 22.5 µL of tracer solution to the top 4 rows and 22.5 µL tracer + competing compound solution to the 4 bottom rows. Plates were briefly mixed on an orbital shaker and incubated for 1.5 h at room temperature. […] Plates were briefly mixed on an orbital shaker and incubated for 15 min to allow complementation.

T1 sequence (P50391 whole entry): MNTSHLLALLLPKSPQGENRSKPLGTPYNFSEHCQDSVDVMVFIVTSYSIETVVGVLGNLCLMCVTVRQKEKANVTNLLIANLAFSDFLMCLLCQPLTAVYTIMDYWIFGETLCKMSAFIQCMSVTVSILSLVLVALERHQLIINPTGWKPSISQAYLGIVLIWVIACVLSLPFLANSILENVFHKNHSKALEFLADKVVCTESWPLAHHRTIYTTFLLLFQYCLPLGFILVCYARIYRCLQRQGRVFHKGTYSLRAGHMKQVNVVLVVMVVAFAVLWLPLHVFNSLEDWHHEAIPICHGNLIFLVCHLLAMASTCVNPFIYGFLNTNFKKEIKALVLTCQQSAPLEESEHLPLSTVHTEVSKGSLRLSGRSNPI

Structure (SMILES)	NanoBRET Fold Response (NPY4R, tracer 0.1μM)	NanoBRET Fold Response (NPY4R, tracer 1μM)	other results
O=C(CCc1ccc2n1[B-](F)(F)[N+]1=C(c3ccc[nH]3)C=CC1=C2)NCc1ccc(C(=O)NCCOCCC(=O)N[C@@H]2CC[C@@]3(O)[C@H]4Cc5ccc(O)c6c5[C@@]3(CCN4CC3CC3)[C@H]2O6)cc1 [Naltrexone-3-NB590]	1.04	0.91	
O=C(CCOCCOCCOCCOCCNC(=O)CCc1ccc2n1[B-](F)(F)[N+]1=C(c3ccc[nH]3)C=CC1=C2)NCCCN1CCN(C2=Nc3cc(Cl)ccc3Nc3ccccc32)CC1 [Clozapine-a-2-NB590]			NanoBRET Fold Response (NPY4R, 0.1μM tracer): 0.88; NanoBRET Fold Response (NPY4R, 1μM tracer): 1.40
CCOC(=O)c1cc(C#N)c(N2CCC(C(=O)NS(=O)(=O)Cc3ccccc3/C=C/C(=O)NCCNC(=O)CCc3ccc4n3[B-](F)(F)[N+]3=C(c5ccc[nH]5)C=CC3=C4)CC2)nc1C [AZD1283-1-NB590]			NanoBRET Fold Response (NPY4R, 0.1μM): 1.02; NanoBRET Fold Response (NPY4R, 1μM): 1.03
COc1ccc2[nH]c(-c3ccc(CNC(=O)CCOCCOCCOCCOCCNC(=O)CCc4ccc5n4[B-](F)(F)[N+]4=C(c6ccc[nH]6)C=CC4=C5)cc3)c(CCNC(C)=O)c2n1 [AzomelatoninICO9-2-NB590]			NanoBRET Fold Response (0.1μM tracer): 1.11; NanoBRET Fold Response (1μM tracer): 0.94
CCCn1c(=O)c2[nH]c(-c3ccc(OCC(=O)NCCNC(=O)CCOCCNC(=O)c4ccc(CNC(=O)CCc5ccc6n5[B-](F)(F)[N+]5=C(c7ccc[nH]7)C=CC5=C6)cc4)cc3)nc2n(CCC)c1=O [XAC-3-NB590]	0.97	0.86	
COc1ccccc1N1CCN(CCCCN2C(=O)c3ccc(CNC(=O)CCOCCNC(=O)c4ccc(CNC(=O)CCc5ccc6n5[B-](F)(F)[N+]5=C(c7ccc[nH]7)C=CC5=C6)cc4)cc3C2=O)CC1 [NAN-190-3-NB590]	1.06	0.95	
O=C(CCc1ccc2n1[B-](F)(F)[N+]1=C(c3ccc[nH]3)C=CC1=C2)NCc1ccc(C(=O)NCCOCCOCCNCC(O)COc2cccc3ccccc23)cc1 (stereo not shown) [Propranolol-3-NB590]			NanoBRET Fold Response (NPY4R, 0.1μM): 0.98; NanoBRET Fold Response (NPY4R, 1μM): 0.99
COc1ccc2c(n1)c(CCNC(C)=O)cn2CCNC(=O)CCc1ccc2n1[B-](F)(F)[N+]1=C(c3ccc[nH]3)C=CC1=C2 [Azamelatonin-1-NB590]			NanoBRET Fold Response (0.1μM tracer): 1.11; NanoBRET Fold Response (1μM tracer): 1.08
O=C(CCOCCOCCOCCOCCNC(=O)CCc1ccc2n1[B-](F)(F)[N+]1=C(c3ccc[nH]3)C=CC1=C2)NCCCN1CCN(C2=Nc3ccccc3Oc3ccc(Cl)cc32)CC1 [Loxapine-a-2-NB590]	0.99	1.10	
COc1ccccc1N1CCN(CCCCN2C(=O)c3ccc(CNC(=O)CCOCCOCCOCCOCCNC(=O)CCc4ccc5n4[B-](F)(F)[N+]4=C(c6ccc[nH]6)C=CC4=C5)cc3C2=O)CC1 [NAN-190-2-NB590]	0.95	1.04	
CC(C)N(CC[C@H](c1ccccc1)c1cc(CCNC(=O)c2ccc(CNC(=O)CCc3ccc4n3[B-](F)(F)[N+]3=C(c5ccc[nH]5)C=CC3=C4)cc2)ccc1O)C(C)C [Tolterodine-BZ-NB590]	0.88	0.98	
O=C(CCc1ccc2n1[B-](F)(F)[N+]1=C(c3ccc[nH]3)C=CC1=C2)NCCOCCOCCNC(=O)OCCOCCN1CCN(C2=Nc3ccccc3Sc3ccccc32)CC1 [Quetiapine-a-2-NB590]	1.06	0.73	
CN1CCN(C2=Nc3cc(Cl)ccc3Nc3ccc(CNC(=O)CCOCCOCCOCCOCCNC(=O)CCc4ccc5n4[B-](F)(F)[N+]4=C(c6ccc[nH]6)C=CC4=C5)cc32)CC1 [Clozapine-b-2-NB590]			NanoBRET Fold Response (NPY4R, 0.1μM tracer): 1.02; NanoBRET Fold Response (NPY4R, 1μM tracer): 1.08
CC(C)N(CC[C@H](c1ccccc1)c1cc(CCNC(=O)CCOCCOCCOCCOCCNC(=O)CCc2ccc3n2[B-](F)(F)[N+]2=C(c4ccc[nH]4)C=CC2=C3)ccc1O)C(C)C [Tolterodine-2-NB590]	0.86	1.09	
CN(C)CCC=C1c2ccccc2CCc2ccc(C(=O)NCCNC(=O)CCOCCOCCOCCOCCNC(=O)CCc3ccc4n3[B-](F)(F)[N+]3=C(c5ccc[nH]5)C=CC3=C4)cc21 [Amitriptyline-a-2-NB590]			NanoBRET Fold Response (tracer at 0.1μM): 1.11; NanoBRET Fold Response (tracer at 1μM): 0.96
Cc1cc2c(s1)Nc1ccccc1N=C2N1CCN(CCCNC(=O)CCOCCOCCOCCOCCNC(=O)CCc2ccc3n2[B-](F)(F)[N+]2=C(c4ccc[nH]4)C=CC2=C3)CC1 [Olanzapine-a-2-NB590]	1.01	0.91	
N#CN=C(NCCCOc1cccc(CN2CCCCC2)c1)NCCNC(=O)CCOCCOCCOCCOCCNC(=O)CCc1ccc2n1[B-](F)(F)[N+]1=C(c3ccc[nH]3)C=CC1=C2 [Aminopotentidine-2-NB590]	1.01	0.98	
Cc1nc2n(c(=O)c1CCN1CCC(c3noc4cc(F)ccc34)CC1)CCCC2OC(=O)NCCOCCOCCOCCOCCNC(=O)CCc1ccc2n1[B-](F)(F)[N+]1=C(c3ccc[nH]3)C=CC1=C2 (stereo not shown) [Risperidone-2-NB590]	0.95	1.02	
CN(C)CCC=C1c2ccccc2CCc2ccc(C(=O)NCCNC(=O)CCOCCOCCOCCOCCNC(=O)CCc3ccc4n3[B-](F)(F)[N+]3=C(c5ccc[nH]5)C=CC3=C4)cc21 [Amitriptyline-b-2-NB590]			NanoBRET Fold Response (tracer at 1μM, listed as amitriptyline-b-2-NB590): 1.03
